# Data from patent US6784167B2, “17-beta-hydroxysteroid dehydrogenase-II inhibitors” (Bayer Pharmaceuticals Corporation, priority 2000, dated 2004).
# Like-named read-outs stand apart in the source and are kept apart here.
# Key:
# [1] = molecular target: T1, 17-Beta HSD II Enzyme (Homo sapiens, UniProt P37059); assay: Primary assay: inhibition of 17-Beta HSD II enzyme (estradiol/NAD, PMS:MTS colorimetric readout at 490 nm); type: biochemical; settings: Table 7, baculovirus-expressed recombinant HSD II, estradiol substrate
# T1 construct: made in house; host or cells: insect cells (baculovirus)
# T1 sequence (P37059 1-387): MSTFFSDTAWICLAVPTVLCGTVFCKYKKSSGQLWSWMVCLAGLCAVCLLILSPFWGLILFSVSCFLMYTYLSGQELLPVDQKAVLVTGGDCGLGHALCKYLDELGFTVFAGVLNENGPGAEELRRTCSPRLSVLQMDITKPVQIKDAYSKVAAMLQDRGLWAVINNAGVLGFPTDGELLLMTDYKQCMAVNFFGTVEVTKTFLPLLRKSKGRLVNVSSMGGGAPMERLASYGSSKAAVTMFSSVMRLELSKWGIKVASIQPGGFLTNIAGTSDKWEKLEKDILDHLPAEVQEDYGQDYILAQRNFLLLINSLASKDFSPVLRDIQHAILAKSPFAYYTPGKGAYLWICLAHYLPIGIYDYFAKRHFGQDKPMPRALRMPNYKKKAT
# Protocol: HSD II protein purification: The method for purification of baculovirus-expressed HSD II was standardized as follows. The insect cell pellet containing recombinant HSD II was lysed in 2.5 volumes of lysis buffer (40 mM Tris, pH 7.5, 1 mM EDTA, 2 mM DTT, 10 uM NAD) containing 500 uM AEBSF, 10 ug/ml aprotinin, 1 uM pepstatin A, and 100 uM leupeptin. The pellet was nutated for 30 min in this buffer. Subsequently, the pellet was homogenized with 15 strokes using a glass and teflon potter. The volume was doubled with a 2× sucrose/NaCl solution (500 mM sucrose, 300 mM NaCl in lysis buffer). After centrifugation at 10,000×g for 30 min, the supernatant was decanted and stored at −20° C. The pellet was resuspended in 2.5 volumes of lysis buffer containing 250 mM sucrose and 150 mM NaCl. Homogenization was repeated (15 strokes) and the suspension was centrifuged again and the decanted supernatant was stored at −20° C. The pellet was resuspended with 2 times the original pellet volume in lysis buffer containing 150 mM NaCl and 1% Triton X-100. The suspension was nutated for 20 min and then homogenized with 5 strokes. Subsequently, the suspension was centrifuged at 30,000×g for 1 h and supernatant was decanted and poured into a chromatographic column. Sephadex G-25 (fine) was added in small amounts, allowing approximately 15 min after each addition for complete swelling. Sephadex addition was continued until all liquid was absorbed. The protein was eluted with 1 void volume of lysis buffer and eluate monitored at 280 nm optical density. The chromatographic procedure was repeated and an equal volume of glycerol was added to the final eluate.
# Primary assay: After titration, the HSD II prep, generated with the standard protocol, was diluted to the appropriate concentration (generally 1/15 dilution). 55 μl of assay buffer (50 mM Hepes, pH 8.0) was added to all wells of a 96 well plate. 5 μl of 5% DMSO were added to wells A1-C1, A2-C2, F1-H1, and F2-H2. A 10 μl aliquot of a 10 mM solution in DMSO of each compound was diluted in 190 μl of assay buffer. The plate with these compound dilutions was then mixed for 15 min on a shaker and a 5 μl aliquot from each well was added to the […]. This was followed by 10 μl of HSD II enzyme ( 1/15 dilution)/estradiol mix in assay buffer containing 1% Triton X-100. The estradiol […] from a 20 mM estradiol DMSO stock solution, which was diluted 1/20 (50 μl/ml) in 50 mM Hepes buffer containing 1% Triton X-100. All wells, except F1-H1 and F2-H2, also received 10 μl of 25 mg/ml NAD (SIGMA) in 100 mM Hepes, pH 9. The blank wells F1-H1 and F2-H2 received 10 μl of NAD buffer. 20 μl of PMS:MTS solution (100 μl PMS into 1800 μl MTS, Promega) was added to all wells. The plate was covered with aluminum foil and incubated at room temperature for 1.5 h. The plate was analyzed at 490 nm on a Hewlett Pachard 8453 spectrophotometer and results were calculated.
# [2] = read-out: IC50 values ≧2 μM and <10 μM
melting point,IC50 [1] [nM],"IC50 [1, 2] [nM]",Structure (SMILES)
192 °C,< 500,,CN1C(=O)CC(c2ccccc2)C1C(O)c1ccc(S(=O)(=O)c2ccc(F)cc2)s1 (centres unmarked) [Example 76]
206 °C,,2000 to 10000,CN1C(=O)CC(c2ccccc2)C1C(O)c1ccc(-c2ccc(C(F)(F)F)cc2)s1 (centres unmarked) [Example 32]
232 °C (dec.),< 500,,CN1C(=O)CC(c2ccccc2)C1C(O)c1ccc(-c2ccc(C(=O)O)cc2)s1 (centres unmarked) [Example 68]
197 to 199 °C,< 500,,CN1C(=O)C[C@H](c2ccccc2)[C@@H]1[C@H](O)c1ccc(S(=O)(=O)N2CCSCC2)s1 (racemic) [Example 35]
152 °C,< 500,,CN1C(=O)C[C@H](c2ccccc2)[C@@H]1[C@H](O)c1ccc(-c2cccs2)s1 (racemic) [Example 29]
,,2000 to 10000,"CN(C)c1ccc([C@H]2CC(=O)N(C)[C@H]2[C@H](O)c2ccc(-c3ccccc3)s2)cc1 (relative stereo) [Example 19, (±)-(4R*,5R*)-5-[(1S*)-hydroxy(5-phenyl(2-thienyl))methyl]-1-methyl-4-[4-(dimethylamino)phenyl]pyrrolidin-2-one]"
100 °C,,2000 to 10000,CN1C(=O)CC(c2ccccc2)C1C(O)c1ccc(-c2cccc([N+](=O)[O-])c2)o1 (centres unmarked) [Example 123]
221 to 222 °C,< 500,,"CN1C(=O)C[C@H](c2ccc(N)cc2)[C@@H]1[C@H](O)c1ccc(-c2ccccc2)s1 (relative stereo) [Example 17, (±)-(4R*,5R*)-5-[(1S*)-hydroxy(5-phenyl(2-thienyl))methyl]-4-(4-aminophenyl)-1-methylpyrrolidin-2-one]"
190 °C,< 500,,CN1C(=O)CC(c2ccccc2)C1C(O)c1ccc(-c2cccc(N)c2)s1 (centres unmarked) [Example 67]
173 °C,,2000 to 10000,CN(C)c1ccc(-c2ccc([C@@H](O)[C@H]3[C@@H](c4ccccc4)CC(=O)N3C)s2)cc1F (racemic) [Example 28]
178 °C,< 500,,CN1C(=O)CC(c2ccccc2F)C1C(O)c1ccc(-c2ccc(F)cc2)s1 (centres unmarked) [Example 84]
78 to 82 °C,< 500,,Cc1sc([C@@H](O)[C@H]2[C@@H](c3ccccc3)CC(=O)N2C)cc1-c1ccccc1 (racemic) [Example 38]
,< 500,,CN1C(=O)C[C@H](c2ccccc2)[C@@H]1[C@H](O)c1ccc(S(=O)(=O)c2ccccc2)s1 [Example 149]
139 to 140 °C,< 500,,CN1C(=O)C[C@H](c2ccccc2)[C@@H]1[C@H](O)C#Cc1ccccc1Cl (racemic) [Example 126]
170 °C,,2000 to 10000,CN1C(=O)CC(c2ccccc2)C1C(O)c1ccc(-c2ccc(-c3ccccc3)c(F)c2)s1 (centres unmarked) [Example 47]
182 °C,< 500,,Cc1ccc(-c2ccc([C@@H](O)[C@H]3[C@@H](c4ccccc4)CC(=O)N3C)s2)c(F)c1 (racemic) [Example 72]
184 to 186 °C (dec.),< 500,,CN1C(=O)CC(c2ccccc2)C1C(O)c1ccc(-c2ccc(O)cc2)s1 (centres unmarked) [Example 52]
247 °C,< 500,,CN1C(=O)CC(c2ccccc2)C1C(O)c1ccc(S(=O)(=O)c2ccccc2)s1 (centres unmarked) [Example 70]
184 to 185 °C,< 500,,CN1C(=O)C[C@H](c2ccccc2F)[C@@H]1[C@H](O)c1cccc(Cl)c1 [Example 154]

melting point,IC50 [1] [nM],"IC50 [1, 2] [nM]",Structure (SMILES)
172 °C,,2000 to 10000,COc1cccc(C2CC(=O)N(C)C2C(O)c2ccc(-c3ccc(F)cc3)s2)c1 (centres unmarked) [Example 87]
128 °C,< 500,,COc1cccc(-c2ccc(C(O)C3C(c4ccccc4)CC(=O)N3C)s2)c1 (racemic) [Example 31]
,< 500,,CN1C(=O)CC(c2ccccc2)C1C(O)c1ccc(-c2c(F)cccc2F)s1 (centres unmarked) [Example 30]
,,2000 to 10000,"CN1C(=S)C[C@H](c2ccccc2)[C@@H]1[C@H](O)c1cccs1 (relative stereo) [Example 1, (±)-(4R*,5R*)-5-((1S*)-hydroxy-2-thienylmethyl)-1-methyl-4-phenylpyrrolidin-2-thione]"
,,2000 to 10000,"CN1C(=O)C[C@H](c2ccccc2)[C@@H]1[C@H](O)c1ccc(-c2cccc(NC(=O)Nc3ccc(F)cc3)c2)s1 (relative stereo) [Example 25, (±)-(4R*,5R*)-5-{(1S*)[5-(3-{[(4-fluorophenyl)amino]carbonylamino}phenyl)(2-thienyl)]hydroxymethyl}-1-methyl-4-phenylpyrrolidin-2-one]"
,< 500,,"CN1C(=O)C[C@H](c2ccc(O)cc2)[C@@H]1[C@H](O)c1ccc(-c2ccccc2)s1 (relative stereo) [Example 20, (±)-(4R*,5R*)-5-[(1S*)-hydroxy(5-phenyl(2-thienyl))methyl]-1-methyl-4-[4-hydroxyphenyl]pyrrolidin-2-one]"
,< 500,,CN1C(=O)C[C@H](c2ccccc2)[C@@H]1[C@H](O)c1ccc(-c2cccnc2)s1 [Example 148]
,< 500,,CN1C(=O)CC(c2ccccc2)C1C(O)C#Cc1ccccc1F (centres unmarked) [Example 127]
,< 500,,CN1C(=O)C[C@H](c2ccccc2)[C@@H]1[C@H](O)c1ccc(-c2ccccn2)s1 [Example 147]
,< 500,,CN1C(=O)C[C@H](c2ccccc2)[C@@H]1[C@H](O)c1ccc(-c2ccc(F)cc2)s1 [Example 146]
,,2000 to 10000,"CN1C(=O)C[C@H](c2ccc(-c3ccc(F)cc3)cc2)[C@@H]1[C@H](O)c1ccc(-c2ccccc2)s1 (relative stereo) [Example 22, (±)-(4R*,5R*)-5-[(1S*)hydroxy(5-phenyl(2-thienyl))-methyl]-4-[4-(4-fluorophenyl)phenyl]-1-methylpyrrolidin-2-one]"
,< 500,,"CN1C(=O)C[C@H](c2ccccc2)[C@@H]1[C@@H](O)c1ccc(-c2ccccc2)s1 [Example 11, (4R,5R)-5-[(1R)-hydroxy(5-phenyl(2-thienyl))methyl]-1-methyl-4-phenylpyrrolidin-2-one]"
,< 500,,CSC(c1cc2ccccc2[nH]1)[C@H]1[C@@H](c2ccccc2)CC(=O)N1C (relative stereo) [Example 10]
,< 500,,CN1C(=O)C[C@H](c2ccccc2)[C@@H]1[C@H](O)c1ccc(-c2cccnc2)s1 (racemic) [Example 79]
,< 500,,"CN1C(=O)C[C@H](c2ccccc2)[C@@H]1[C@H](O)C#Cc1ccccc1 (relative stereo) [Example 8, (±)-5-((1R*)-1-hydroxy-3-phenylprop-2-ynyl)(4R*,5R*)-1-methyl-4-phenylpyrrolidin-2-one]"
,< 500,,CN1C(=O)CC(c2ccccc2)C1C(O)c1ccc(-c2ccc(Cl)cc2)s1 (centres unmarked) [Example 51]
,,2000 to 10000,"CN1C(=O)C[C@H](c2ccc(CO)cc2)[C@@H]1[C@H](O)c1ccc(-c2ccccc2)s1 (relative stereo) [Example 21, (±)-(4R*,5R*)-5-[(1S*)hydroxy(5-phenyl(2-thienyl))methyl]-4-[4-(hydroxymethyl)phenyl]-1-methylpyrrolidin-2-one]"
,,2000 to 10000,"CN1C(=O)C[C@H](c2ccccc2)[C@@H]1COc1cccc(Cl)c1 (relative stereo) [Example 2, (±)-(4R*,5R*)-5-[(3-chlorophenoxy)methyl]-1-methyl-4-phenylpyrrolidin-2-one]"
